Assay [1] relates to TGF-α-induced pulmonary fibrosis. The settings on record: previous study; cited from earlier work.
For the next assay, the system named is ERK1/2. The settings on record: previously shown; cited from earlier work.
For assay [2], the system named is TGF-α-induced cellular proliferation. Put plainly: Epithelial and mesenchymal proliferation in lung sections of CCSP/TGF-α mice. The format is in vivo. Conditions: twice daily by gavage, 4 days of TGF-α induction. The protocol:
ARRY was administered to CCSP/TGF-α mice (i.e., mice expressing TGF-α in the epithelium, under control of the doxycycline (Dox)-regulatable Clara cell secretory protein promoter) twice daily by gavage, with the first dose at the time of TGF-α induction with doxycycline. Mice were sacrificed after 4 days of TGF-α induction and ARRY administration.
(§1) Administration of ARRY142886: ARRY142886 (ARRY) is a potent, highly specific, allosteric inhibitor of MEK1/2. ARRY is a second generation MEK inhibitor that targets the Ras-Raf-MEK-ERK pathway. ARRY was administered to mice twice daily by gavage, with the first dose at the time of TGF-α induction with doxycycline. Mice were then anesthetized (Isoflurane; Abbott Labs, Chicago, Ill.), and 37.5 mg/kg sterile ARRY142886 was administered by gavage using a 20 gauge feeding catheter (Harvard Apparatus, Holliston, Mass.). Mice were treated with vehicle or ARRY twice daily for up to 4 weeks. Mice were weighed at the beginning of the study and at weekly intervals.
Lung Histology and Immunohistochemistry: Mice were killed with pentobarbital sodium (65 mg/ml) euthanasia solution (Fort Dodge Animal Health, Fort Dodge, Iowa), and lungs were inflation fixed using 4% paraformaldehyde at 25 cm H2O of pressure, and then allowed to fix overnight at 4° C. […]

Assay [3] deals with TGF-α-induced pulmonary fibrosis. Put plainly: Prevention study: lung mechanics in TGF-α-induced pulmonary fibrosis. The assay is classed as in vivo. The settings on record: CCSP/TGF-α mice, twice daily for 4 weeks from time of Dox, vs vehicle. From the text:
To examine if ARRY prevented the physiologic effects of TGF-α-induced lung fibrosis, CCSP/TGF-α mice were given ARRY twice daily for 4 weeks while TGF-α was induced. […] More specifically, FIG. 3 illustrates that ARRY prevents TGF-α-mediated alterations in lung mechanics (*=p<0.05 compared to vehicle and ARRY-treated mice). […] Representative samples from four mice per group include low power (4×) and higher power (10×) of pleural fibrosis.
To induce TGF-α expression, adult transgenic mice (8-12 weeks old) were placed on Doxycycline-containing drinking water (0.5 mg/ml) and food (62.5 mg/kg). Dox-containing water was replaced three times per week.
Administration of ARRY142886: ARRY142886 (ARRY) is a potent, highly specific, allosteric inhibitor of MEK1/2. ARRY is a second generation MEK inhibitor that targets the Ras-Raf-MEK-ERK pathway. ARRY was administered to mice twice daily by gavage, with the first dose at the time of TGF-α induction with doxycycline. […]
(§2) Pulmonary Mechanics: Lung mechanics were assessed on anesthetized mice using a computerized Flexi Vent system (SCIREQ, Montreal, Canada). […] The ventilation mode was changed to forced oscillatory signal (0.5-19.6 Hz), and respiratory impedance was measured. […]

Assay [4] has the same test system. Put plainly: Prevention study: lung proliferation and matrix gene expression (Collagens I, III and Elastin). The format is in vivo. The settings on record: TGF-α transgenic mice, 4 weeks twice daily, vs vehicle. As for the experimental part:
A 4-week study was performed to evaluate the physiologic effects of MEK1/2 kinase inhibition with ARRY on TGF-α-induced pulmonary fibrosis. ARRY was administered to TGF-α transgenic mice; a model for studying pulmonary fibrosis. Endpoints included changes in lung mechanics, lung histology, lung cell proliferation and changes in matrix gene expression (Collagens I, III and Elastin). Differences in the parameters were compared between mice treated with and without ARRY. Mice which over express TGF-α that were treated with 4 weeks of vehicle (i.e. an innocuous or inert medication) developed severe lung fibrosis on histology and lung collagen measurements associated with severe lung restriction on lung mechanics. […] Together, these findings support that MEK1/2 inhibition prevents TGF-α/EGF-mediated pulmonary fibrosis, and is a possible pharmacological strategy to treat pulmonary fibrosis.

The test system of assay [5] is established TGF-α-induced pulmonary fibrosis. Put plainly: Rescue study of established fibrosis: lung histology (trichrome stain). The settings on record: CCSP/TGF-α mice, 8 weeks total Dox, treatment during last 4 weeks. The format is in vivo. The protocol:
To determine whether the ERK/MAPK pathway mediates the progression of established fibrosis, CCSP/TGFα mice were treated with ARRY following 4 weeks of Dox, while remaining on Dox for an additional 4 weeks (8 weeks total Dox, 4 week ARRY). Controls included CCSP/TGFα mice treated with vehicle while remaining on Dox an additional 4 weeks (8 weeks total Dox, 4 week vehicle). CCSP/TGFα mice began losing body weight after 4 weeks of Dox. […] See FIG. 6, illustrating that TGF-α was induced with doxycycline for 8 weeks in transgenic mice. ARRY added after 4 weeks of TGF-α expression attenuated weight loss, compared to vehicle-treated mice. […] See FIG. 8, illustrating that ARRY prevents progression of TGF-α induced fibrosis as assessed by lung histology using a trichrome stain. In FIG. 8, a representative sample from 4 mice per group includes low power (4×) and higher power (10×) of pleural fibrosis. […] Lung Histology and Immunohistochemistry: Mice were killed with pentobarbital sodium (65 mg/ml) euthanasia solution (Fort Dodge Animal Health, Fort Dodge, Iowa), and lungs were inflation fixed using 4% paraformaldehyde at 25 cm H2O of pressure, and then allowed to fix overnight at 4° C. Fixed lungs were then washed with phosphate-buffered saline (PBS), dehydrated through a graded series of ethanols, and processed for paraffin embedding. […]

The nature of assay [6]: Rescue study of established fibrosis: body weight. The assay is classed as in vivo. Conditions: CCSP/TGFα mice, 8 weeks total Dox, treatment during last 4 weeks, vs vehicle. The protocol: (§3) To determine whether the ERK/MAPK pathway mediates the progression of established fibrosis, CCSP/TGFα mice were treated with ARRY following 4 weeks of Dox, while remaining on Dox for an additional 4 weeks (8 weeks total Dox, 4 week ARRY). Controls included CCSP/TGFα mice treated with vehicle while remaining on Dox an additional 4 weeks (8 weeks total Dox, 4 week vehicle). CCSP/TGFα mice began losing body weight after 4 weeks of Dox. […] See FIG. 6, illustrating that TGF-α was induced with doxycycline for 8 weeks in transgenic mice. ARRY added after 4 weeks of TGF-α expression attenuated weight loss, compared to vehicle-treated mice.
as §1

The test system of assay [7] is phosphorylation of ERK1/2. Put plainly: Western blot of lung homogenates for ERK1/2 phosphorylation in CCSP/TGF-α mice. The format is in vivo. The settings on record: twice daily by gavage, 4 days of TGF-α induction, vs vehicle. For orientation: Immunoblotting shows a protein as a band on a membrane.
Protocol: Western Blots: Western blot analysis was performed on lung homogenates of CCSP/TGF-α mice treated with 4 days of Dox. Controls were littermate single transgene CCSP/− mice treated with 1 day of Dox. Protein concentrations were assessed using a Bradford Assay and protein loaded on a 4%-20% Tris/glycine SDSPAGE (Invitrogen) and electroblotted to PVDF membranes (0.45 um: Bio-Rad). Blots were blocked with 5% nonfat dry milk in TBST (10 mM Tris, pH 8, 150 mM NaCl, 0.1% Tween 20) and incubated with antibodies against total and phosphorylated Erk (Cell Signaling Technology) and proliferating cell nuclear antigen (PCNA) (Cell Signaling Technology). Blots were washed in TBST and incubated with goat anti-rabbit horse radish peroxidase conjugated (Calbiochem, EMD Biosciences) secondary antibodies and developed on film by chemiluminescence using the ECL Plus system (Amersham Biosciences). Densitometry was performed using the volume integration function on a Phosphorlmager software Imagequant 5.2 (Molecular Dynamics, Sunnyvale, Calif.) after scanning the films.
The test system of assay [8] is established TGF-α-induced pulmonary fibrosis. Put plainly: Rescue study of established fibrosis: lung mechanics. Conditions: CCSP/TGF-α mice, 8 weeks total Dox, treatment during last 4 weeks, vs vehicle. The format is in vivo. As for the experimental part: as §3
See FIG. 7, illustrating that TGF-α was induced with doxycycline for 8 weeks in CCSP/TGF-α transgenic mice. ARRY added after 4 weeks of TGF-α expression prevented progression of alterations in lung mechanics compared to vehicle-treated mice. *=p<0.05 compared to vehicle control CSP/− mice. *#=p<0.05 compared to CCSP/TGF-α mice.
as §2

Assay [9] deals with TGF-α-induced pulmonary fibrosis. Put plainly: Prevention study: lung histology (trichrome stain). The format is in vivo, mice. From the text: To examine if ARRY prevented the physiologic effects of TGF-α-induced lung fibrosis, CCSP/TGF-α mice were given ARRY twice daily for 4 weeks while TGF-α was induced. […] More specifically, FIG. 3 illustrates that ARRY prevents TGF-α-mediated alterations in lung mechanics (*=p<0.05 compared to vehicle and ARRY-treated mice). […] Representative samples from four mice per group include low power (4×) and higher power (10×) of pleural fibrosis. […] To induce TGF-α expression, adult transgenic mice (8-12 weeks old) were placed on Doxycycline-containing drinking water (0.5 mg/ml) and food (62.5 mg/kg). Dox-containing water was replaced three times per week. Administration of […]) is a potent, highly specific, allosteric inhibitor of MEK1/2. ARRY is a second generation MEK inhibitor that targets the Ras-Raf-MEK-ERK pathway. ARRY was administered to mice twice daily by gavage, with the first dose at the time of TGF-α induction with doxycycline. Mice were then anesthetized (Isoflurane; Abbott Labs, Chicago, Ill.), and 37.5 mg/kg sterile ARRY142886 was administered by gavage using a 20 gauge feeding catheter (Harvard Apparatus, Holliston, Mass.). Mice were treated with vehicle or ARRY twice daily for up to 4 weeks. Mice were weighed at the beginning of the study and at weekly intervals. […]

Assay [10] shares this test system. As to the kind of experiment: Prevention study: total lung collagen (Sircol Collagen Assay). The assay is classed as in vivo. Conditions: CCSP/TGF-α mice, twice daily for 4 weeks from time of Dox. An excerpt: To examine if ARRY prevented the physiologic effects of TGF-α-induced lung fibrosis, CCSP/TGF-α mice were given ARRY twice daily for 4 weeks while TGF-α was induced. […] More specifically, FIG. 3 illustrates that ARRY prevents TGF-α-mediated alterations in lung mechanics (*=p<0.05 compared to vehicle and ARRY-treated mice). […] Representative samples from four mice per group include low power (4×) and higher power (10×) of pleural fibrosis. […] To induce TGF-α expression, adult transgenic mice (8-12 weeks old) were placed on Doxycycline-containing drinking water (0.5 mg/ml) and food (62.5 mg/kg). Dox-containing water was replaced three times per week. Administration of […]) is a potent, highly specific, allosteric inhibitor of MEK1/2. ARRY is a second generation MEK inhibitor that targets the Ras-Raf-MEK-ERK pathway. ARRY was administered to mice twice daily by gavage, with the first dose at the time of TGF-α induction with doxycycline. Mice were then anesthetized (Isoflurane; Abbott Labs, Chicago, Ill.), and 37.5 mg/kg sterile ARRY142886 was administered by gavage using a 20 gauge feeding catheter (Harvard Apparatus, Holliston, Mass.). […] Total Lung Collagen: Total lung collagen was determined by measuring total soluble collagen (Sircol Collagen Assay, Biocolor, Ireland). […] The optical density measured with a spectrophotometer (540 nm).

Structures are written as SMILES.

Here are results for four compounds from patent US20120095060A1, “METHODS AND COMPOSITIONS OF MITOGEN-ACTIVATED PROTEIN KINASE (MAPK) PATHWAY INHIBITORS FOR TREATING PULMONARY FIBROSIS” (priority 2010, published 2012).

With `COc1cc2ncnc(Nc3ccc(F)c(Cl)c3)c2cc1OCCCN1CCOCC1` [gefitinib], the “fibrosis in the CCSP/TGF-α transgenic model” value in [1] is on record as “prevented fibrosis”.
`C=CCN(/C=C1/C(=O)O[C@H](COC)[C@@]2(C)C1=C(O)C(=O)C1=C2[C@H](OC(C)=O)C[C@]2(C)C(=O)CC[C@@H]12)CC=C` [PX-866]: the “phosphorylation of ERK1/2 in treated TGF-α mice” value with ERK1/2 was “remain phosphorylated”.
For `Cn1cnc2c(F)c(Nc3ccc(Br)cc3Cl)c(C(=O)NOCCO)cc21` [ARRY142886], the “TGF-α-induced cellular proliferation (epithelial and mesenchymal) in lung sections” value in [2] is “dose-dependent inhibition of TGF-α-induced cellular proliferation”. Further, the “lung mechanics (airway resistance, airway and tissue elastance, compliance)” value in assay [3] is “no changes in lung mechanics”; in assay [3] (listed as ARRY) it was “prevented TGFα-mediated increases in airway resistance, and airway and tissue elastance and decreases in compliance”. In addition, in [4], the “lung proliferation and matrix gene expression” value was “significantly reduced lung proliferation and matrix gene expression”. Besides, the “pulmonary fibrosis measured by lung matrix expression on lung histology” value in assay [5] is on record as “reduced pulmonary fibrosis”. Also, in assay [6], the body weight loss result is “Body weight loss was attenuated”. The “phosphorylation of ERK1/2 in lung homogenates” value in assay [7] is reported as “inhibited increased phosphorylation of ERK1/2”. For the same compound, the “lung mechanics (compliance, airway resistance, elastance)” value in assay [8] was “improved lung mechanics”. In assay [9] (CCSP/TGF-α mice, twice daily for 4 weeks from time of Dox, trichrome stain), the “lung fibrosis on lung histology” value is “prevents TGF-α-induced pulmonary fibrosis as demonstrated by lung histology”. Further, the “lung fibrosis overall (4-week prevention study)” value in assay [9] (TGF-α transgenic mice, 4 weeks twice daily, vs vehicle) is on record as “complete prevention of lung fibrosis”. Also, in [10], the total lung collagen result is on record as “prevents TGF-α-induced fibrosis as assessed by total lung collagen”.
As to `C#Cc1cccc(Nc2ncnc3cc(OCCOC)c(OCCOC)cc23)c1` [erlotinib], the “fibrosis in the CCSP/TGF-α transgenic model” value in [1] was “prevented fibrosis”.
